System: MCH receptors
Assay: MCH receptor activity class (method not given)
Details: not given

class	Structure (SMILES)
1	Cc1cc(N(C)C)nc(N[C@H]2CC[C@@H](C(=O)NCc3ccc(Cl)c(Cl)c3)CC2)n1 [Example 2581, cis-N-(3,4-dichlorobenzyl)-4-{[4-(dimethylamino)-6-methylpyrimidin-2-yl]amino}cyclohexanecarboxamide]
1	Cc1cc(N[C@H]2CC[C@@H](NC(=O)Nc3ccc(Oc4ccccc4)cc3)CC2)nc2ccccc12 [Example 2559, N-{cis-4-[(4-methylquinolin-2-yl)amino]cyclohexyl}-N′-(4-phenoxyphenyl)urea]

Same assay, conditions: MCH receptor activity class 1-3 (percent of control at 10^-7 M or IC50)

Structure (SMILES)	class
COC(=O)c1scc(C)c1NC(=S)N[C@H]1CC[C@@H](Nc2nccc(N(C)C)n2)CC1 [compound 2356]	3 (Class 3 The value of percent of control at 10^−7 M was more than 60% or the value of IC50 was more than 200 nM.)
CN(C)c1cc(N[C@H]2CC[C@@H](CNC(=O)Nc3ccc(F)cc3F)CC2)nc2ccccc12 [compound 2361]	3 (Class 3 The value of percent of control at 10^−7 M was more than 60% or the value of IC50 was more than 200 nM.)

Same assay, conditions: MCH receptor; class by percent of control at 10^-7 M or IC50

Structure (SMILES)	class
Cc1ccc(C(=O)NC[C@H]2CC[C@@H](Nc3cc(N(C)C)c4ccccc4n3)CC2)cc1[N+](=O)[O-] [compound 170, N-[(cis-4-{[4-(dimethylamino)quinolin-2-yl]amino}cyclohexyl)methyl]-4-methyl-3-nitrobenzamide]	3 (Class 3 The value of percent of control at 10^−7 M was more than 60% or the value of IC50 was more than 200 nM.)
COc1ccc(C(=O)N[C@H]2CC[C@@H](Nc3cc(N(C)C)c4ccccc4n3)CC2)cc1OC [compound 104]	3 (Class 3 The value of percent of control at 10^−7 M was more than 60% or the value of IC50 was more than 200 nM.)
CN(C)c1nc(N[C@H]2CC[C@@H](NC(=S)NC3CCCCCC3)CC2)nc2c1CCCC2 [compound 2055]	3 (Class 3 The value of percent of control at 10^−7 M was more than 60% or the value of IC50 was more than 200 nM.)
CC(Oc1ccccc1)C(=O)N[C@H]1CC[C@@H](Nc2cc(N(C)C)c3ccccc3n2)CC1 (relative stereo) [compound 49, N-(cis-4-{[4-(dimethylamino)quinolin-2-yl]amino}cyclohexyl)-2-phenoxypropanamide]	1 (Class 1: The value of percent of control at 10^−7 M was less than 40% or the value of IC50 was less than 50 nM.)
CN(C)c1nc(N[C@H]2CC[C@@H](NC(=S)NCc3ccc(Cl)c(Cl)c3)CC2)nc2c1CCCC2 [compound 2005]	3 (Class 3 The value of percent of control at 10^−7 M was more than 60% or the value of IC50 was more than 200 nM.)
CN(C)c1nc(N[C@H]2CC[C@@H](NC(=S)Nc3ccc(F)c(F)c3F)CC2)nc2c1CCCC2 [compound 1970]	3 (Class 3 The value of percent of control at 10^−7 M was more than 60% or the value of IC50 was more than 200 nM.)

Same assay, conditions: activity class 1-3: percent of control at 10^-7 M or IC50

Structure (SMILES)	class
CN(C)c1ccnc(N[C@H]2CC[C@@H](NC(=O)Oc3ccc(Br)cc3)CC2)n1 [compound 1623]	3 (Class 3 The value of percent of control at 10^−7 M was more than 60% or the value of IC50 was more than 200 nM.)
CN(C)c1ccnc(N[C@H]2CC[C@@H](CNCCCC#Cc3ccccc3)CC2)n1 [compound 1530]	3 (Class 3 The value of percent of control at 10^−7 M was more than 60% or the value of IC50 was more than 200 nM.)

Same assay, conditions: class 1-3 by percent of control at 10^-7 M or IC50

Structure (SMILES)	class
Cc1onc(-c2c(F)cccc2Cl)c1C(=O)N[C@H]1CC[C@@H](Nc2nc3c(c(N(C)C)n2)CCCC3)CC1 [compound 536, 3-(2-chloro-6-fluorophenyl)-N-(cis-4-{[4-(dimethylamino)-5,6,7,8-tetrahydroquinazolin-2-yl]amino}cyclohexyl)-5-methylisoxazole-4-carboxamide]	1 (Class 1: The value of percent of control at 10^−7 M was less than 40% or the value of IC50 was less than 50 nM.)

Same assay, conditions: class by percent of control at 10^-7 M or IC50

Structure (SMILES)	class
CN(C)c1cc(N[C@H]2CC[C@@H](NC(=O)c3cc(-c4ccccc4)nc4ccccc34)CC2)nc2ccccc12 [compound 757, N-(cis-4-{[4-(dimethylamino)quinolin-2-yl]amino}cyclohexyl)-2-phenylquinoline-4-carboxamide]	2 (Class 2: The value of percent of control at 10^−7 M was from 40% to 60% or the value of IC′50 was from 50 nM to 200 nM.)
CN(C)c1ccnc(N[C@H]2CC[C@@H](NC(=O)Cc3cccc(Oc4ccccc4)c3)CC2)n1 [compound 867]	3 (Class 3 The value of percent of control at 10^−7 M was more than 60% or the value of IC50 was more than 200 nM.)
Cc1cc(C(=O)NC[C@H]2CC[C@@H](Nc3nc4c(c(N(C)C)n3)CCCC4)CC2)nn1C(C)(C)C [compound 652]	3 (Class 3 The value of percent of control at 10^−7 M was more than 60% or the value of IC50 was more than 200 nM.)
Cc1c(Cl)cccc1NC(=S)N[C@H]1CC[C@@H](Nc2nc3c(c(N(C)C)n2)CCCC3)CC1 [compound 1786]	3 (Class 3 The value of percent of control at 10^−7 M was more than 60% or the value of IC50 was more than 200 nM.)
CN(C)c1cc(N[C@H]2CC[C@@H](CNC(=O)Cc3ccccc3OC(F)(F)F)CC2)nc2ccccc12 [compound 808]	3 (Class 3 The value of percent of control at 10^−7 M was more than 60% or the value of IC50 was more than 200 nM.)
C/C(=C\c1ccccc1)C(=O)N[C@H]1CC[C@@H](Nc2nccc(N(C)C)n2)CC1 [compound 305]	3 (Class 3 The value of percent of control at 10^−7 M was more than 60% or the value of IC50 was more than 200 nM.)
CN(C)c1cc(N[C@H]2CC[C@@H](NC(=O)CCc3ccccc3O)CC2)nc2ccccc12 [compound 679]	3 (Class 3 The value of percent of control at 10^−7 M was more than 60% or the value of IC50 was more than 200 nM.)
COc1ccc(Br)cc1CNC[C@H]1CC[C@@H](Nc2nccc(N(C)C)n2)CC1 [compound 1266]	1 (Class 1: The value of percent of control at 10^−7 M was less than 40% or the value of IC50 was less than 50 nM.)
CN(C)c1ccnc(N[C@H]2CC[C@@H](NC(=O)Nc3ccc(Br)cc3C(F)(F)F)CC2)n1 [compound 2242]	3 (Class 3 The value of percent of control at 10^−7 M was more than 60% or the value of IC50 was more than 200 nM.)
COc1ccc(C)cc1NC(=O)NC[C@H]1CC[C@@H](Nc2nc3c(c(N(C)C)n2)CCCC3)CC1 [compound 2492]	3 (Class 3 The value of percent of control at 10^−7 M was more than 60% or the value of IC50 was more than 200 nM.)
CN(C)c1ccnc(N[C@H]2CC[C@@H](NC(=O)c3cc(Cl)cc(Cl)c3NC(=O)C#Cc3ccccc3)CC2)n1 [compound 858]	2 (Class 2: The value of percent of control at 10^−7 M was from 40% to 60% or the value of IC′50 was from 50 nM to 200 nM.)
CN(C)c1nc(N[C@H]2CC[C@@H](NC(=O)Nc3ccc(F)c(C(F)(F)F)c3)CC2)nc2c1CCCC2 [compound 1890]	3 (Class 3 The value of percent of control at 10^−7 M was more than 60% or the value of IC50 was more than 200 nM.)
Cc1ccc([N+](=O)[O-])cc1NC(=O)N[C@H]1CC[C@@H](Nc2nc3c(c(N(C)C)n2)CCCC3)CC1 [compound 1715]	3 (Class 3 The value of percent of control at 10^−7 M was more than 60% or the value of IC50 was more than 200 nM.)
Cc1cc(CN[C@H]2CC[C@@H](Nc3nc4c(c(N(C)C)n3)CCCC4)CC2)cc(C)c1O [compound 1344]	3 (Class 3 The value of percent of control at 10^−7 M was more than 60% or the value of IC50 was more than 200 nM.)
CN(C)c1ccnc(N[C@H]2CC[C@@H](NC(=O)Nc3ccc4c(c3)OCO4)CC2)n1 [compound 2238]	3 (Class 3 The value of percent of control at 10^−7 M was more than 60% or the value of IC50 was more than 200 nM.)

Same assay, conditions: class by percent of control at 10^−7 M or IC50

Structure (SMILES)	class
Cc1cc(N(C)C)nc(N[C@H]2CC[C@@H](NC(=O)c3ccc(Br)cc3)CC2)n1 [compound 2973, 4-bromo-N-(cis-4-{[4-(dimethylamino)-6-methylpyrimidin-2-yl]amino}cyclohexyl)benzamide]	1 (Class 1: The value of percent of control at 10^−7 M was less than 40% or the value of IC50 was less than 50 nM.)
Cc1cnc(N[C@H]2CC[C@@H](NC(=O)CN(C)c3ccc(Cl)cc3)CC2)nc1N(C)C [compound 2945]	1 (Class 1: The value of percent of control at 10^−7 M was less than 40% or the value of IC50 was less than 50 nM.)
Cc1nc(N[C@H]2CC[C@@H](NC(=O)c3cccc(OC(C)C)c3)CC2)nc(N(C)C)c1C [compound 2862]	1 (Class 1: The value of percent of control at 10^−7 M was less than 40% or the value of IC50 was less than 50 nM.)
COc1cccc(Oc2ncccc2C(=O)N[C@H]2CC[C@@H](Nc3ncc(C)c(N(C)C)n3)CC2)c1 [compound 2887, N-(cis-4-{[4-(dimethylamino)-5-methylpyrimidin-2-yl]amino}cyclohexyl)-2-(3-methoxyphenoxy)nicotinamide]	1 (Class 1: The value of percent of control at 10^−7 M was less than 40% or the value of IC50 was less than 50 nM.)
Cc1cc(N(C)C)nc(N[C@H]2CC[C@@H](NC(=O)c3cncc(Br)c3)CC2)n1 [compound 2978, 5-bromo-N-(cis-4-{[4-(dimethylamino)-6-methylpyrimidin-2-yl]amino}cyclohexyl)nicotinamide]	1 (Class 1: The value of percent of control at 10^−7 M was less than 40% or the value of IC50 was less than 50 nM.)
Cc1cnc(N[C@H]2CC[C@@H](NC(=O)c3ccc(F)c(Cl)c3)CC2)nc1N(C)C [compound 2932]	3 (Class 3 The value of percent of control at 10^−7 M was more than 60% or the value of IC50 was more than 200 nM.)
Cc1cc(N(C)C)nc(N[C@H]2CC[C@@H](NC(=O)c3cc(Cl)cc(Cl)c3)CC2)n1 [compound 2966, 3,5-dichloro-N-(cis-4-{[4-(dimethylamino)-6-methylpyrimidin-2-yl]amino}cyclohexyl)benzamide]	1 (Class 1: The value of percent of control at 10^−7 M was less than 40% or the value of IC50 was less than 50 nM.)
Cc1cc(N(C)C)nc(N[C@H]2CC[C@@H](C(=O)NCc3cc(F)ccc3F)CC2)n1 [compound 2819, cis-N-(2,5-difluorobenzyl)-4-{[4-(dimethylamino)-6-methylpyrimidin-2-yl]amino}cyclohexanecarboxamide]	1 (Class 1: The value of percent of control at 10^−7 M was less than 40% or the value of IC50 was less than 50 nM.)

Source: patent US20050197350A1, “Novel quinoline, tetrahydroquinazoline, and pyrimidine derivatives and methods of treatment related to the use thereof” (TAISHO PHARMACEUTICAL CO., LTD., priority 2003, published 2005)
